Tested on: HeLa cells
Experiment: Cytotoxicity test (MTT) with and without near infrared irradiation
Assay type: cell-based
Method: Cytotoxicity test was conducted on the nano-microsphere according to the present invention prepared from Example 1. HeLa cells as cancer cells were incubated in the RPMI 1640 culture medium containing 10% FBS and 1% penicillin in the presence of 5% CO2 at a temperature of 37° C. Then, for the cytotoxicity test, the incubated HeLa cells were dispensed on a 96-well plate at a cell number of 1×10^4 and then incubated for 24 hours. Next day, the nano-microspheres (nano-microspheres added with 1.25 mg of a photosensitizer) according to the present invention were diluted by concentrations, respectively, and then the diluted concentrations were put into each well at 100 μl.
After that, the cells were further incubated for 12 hours so that the nano-microspheres can act on the cells, and then near infrared wavelength light (670 nm) was irradiated at an amount of 1.2 J/cm^2. […]
Lastly, 20 μl of MTT reagent (3-(4,5-dimethylthiazol-2yl)-2,5-diphenyl-2H-tetrazolium bromide) was added to the cells after incubation was completed, followed by again incubating for 3˜4 hours. […] After that, the ELIZA analyzer was used to measure absorbance at 595 nm and thus comparison of the amount of formazan formed was conducted, to thereby confirm cell viability (%) and cytotoxicity of the conjugate (FIGS. 15 and 16).

`CCCC(C)(C)c1cc(Oc2ccc3c(c2)/C2=N/c4c5ccc(Oc6cc(C(C)(C)CCC)c(OC)cc6C(C)(C)CCC)cc5c5[n]4[Zn][n]4/c(c6ccc(Oc7cc(C(C)(C)CCC)c(OC)cc7C(C)(C)CCC)cc6/c4=N/C3=N2)=N\C2=NC(=N\5)/c3ccc(Oc4ccc(C(=O)O)cc4)cc32)c(C(C)(C)CCC)cc1OC` [Zn-Pc-COOH] was tested. Which “apoptosis / cell viability (%)” value (near infrared ray (670 nm, 1.2 J/cm^2) irradiated) did it give?
The value was “apoptosis occurred in proportional to the time for irradiation”.

And the “apoptosis / cell viability (%)” value (near infrared ray not irradiated)?
Its value is “apoptosis did not occur”.
